# Measured values taken from patent US9695155B2, “Herbicidal substituted pyrimidinyloxy benzene compounds” (E. I. DU PONT DE NEMOURS AND COMPANY, priority 2013, dated 2017).
# Columns and labels:
# kochia [1] = test: Test A postemergence; assay type: in vivo, Kochia scoparia; conditions: 1000 g ai/ha, 0 to 100 scale, 0 no effect, 100 complete control
# From the text: (§1) Seeds of plant species selected from barnyardgrass (Echinochloa crus-galli), kochia (Kochia scoparia), ragweed (common ragweed, Ambrosia elatior), Italian ryegrass (Lolium multiflorum), large (Lg) crabgrass (Digitaria sanguinalis), giant foxtail (Setaria faberii), morningglory (Ipomoea spp.), pigweed (Amaranthus retroflexus), velvetleaf (Abutilon theophrasti), wheat (Triticum aestivum), and corn (Zea mays) were planted into a blend of loam soil and sand and treated preemergence with a directed soil spray using test chemicals formulated in a non-phytotoxic solvent mixture which included a surfactant.
# (§2) At the same time, plants selected from these crop and weed species and also blackgrass (Alopecurus myosuroides), and galium (catchweed bedstraw, Galium aparine) were planted in pots containing the same blend of loam soil and sand and treated with postemergence applications of test chemicals formulated in the same manner. Plants ranged in height from 2 to 10 cm and were in the one- to two-leaf stage for the postemergence treatment. Treated plants and untreated controls were maintained in a greenhouse for approximately 10 days, after which time all treated plants were compared to untreated controls and visually evaluated for injury. Plant response ratings, summarized in Table A, are based on a 0 to 100 scale where 0 is no effect and 100 is complete control. A dash (-) response means no test result.
# pigweed [2] = test: Test A postemergence; assay type: in vivo, Amaranthus retroflexus
# Method in brief: (§3)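 Visual injury scored 0–100 (100 = complete control) against untreated controls about 10 days after treatment in a greenhouse. Test chemicals, formulated with surfactant in non-phytotoxic solvent, were sprayed on soil preemergence or on 2-10 cm, one- to two-leaf plants postemergence.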
# barnyardgrass [3] = test: Test A preemergence; assay type: in vivo, Echinochloa crus-galli; conditions: for Barnyardgrass plant response rating: 0 to 100 scale, 0 no effect, 100 complete control, approx. 10 days
# Method in brief: as §3
# giant foxtail [4] = test: Test A postemergence; assay type: in vivo, Setaria faberii
# Method in brief: as §3
# ragweed [5] = test: Test A preemergence; assay type: in vivo, Ambrosia elatior; conditions: 1000 g ai/ha, 0 to 100 scale, 0 no effect, 100 complete control, approx. 10 days
# From the text: as §1, §2
# kochia [6] = test: Test A preemergence; assay type: in vivo, Kochia scoparia; conditions: 1000 g ai/ha, 0 to 100 scale, 0 no effect, 100 complete control, approx. 10 days
# From the text: as §1, §2
# giant foxtail [7] = test: Test A preemergence; assay type: in vivo, Setaria faberii; conditions: for Foxtail, Giant plant response rating: 0 to 100 scale, 0 no effect, 100 complete control, approx. 10 days
# Method in brief: as §3
# Italian ryegrass [8] = test: Test A postemergence; assay type: in vivo, Lolium multiflorum; conditions: 1000 g ai/ha, 0 to 100 scale, 0 no effect, 100 complete control
# From the text: as §1, §2
# galium = test: Test A postemergence; assay type: in vivo, Galium aparine; conditions: 1000 g ai/ha, 0 to 100 scale, 0 no effect, 100 complete control
# From the text: as §1, §2
# wheat [9] = test: Test A postemergence; assay type: in vivo, Triticum aestivum
# Method in brief: as §3
# corn [10] = test: Test A postemergence; assay type: in vivo, Zea mays
# Method in brief: as §3
# Italian ryegrass [11] = test: Test A preemergence; assay type: in vivo, Lolium multiflorum; conditions: 1000 g ai/ha, 0 to 100 scale, 0 no effect, 100 complete control, approx. 10 days
# From the text: as §1, §2
# blackgrass = test: Test A postemergence; assay type: in vivo, Alopecurus myosuroides; conditions: 1000 g ai/ha, 0 to 100 scale, 0 no effect, 100 complete control
# From the text: as §1, §2
# ragweed [12] = test: Test A postemergence; assay type: in vivo, Ambrosia elatior; conditions: 1000 g ai/ha, 0 to 100 scale, 0 no effect, 100 complete control
# From the text: as §1, §2
# pigweed [13] = test: Test A preemergence; assay type: in vivo, Amaranthus retroflexus; conditions: for Pigweed plant response rating: 0 to 100 scale, 0 no effect, 100 complete control, approx. 10 days
# Method in brief: as §3
# barnyardgrass [14] = test: Test A postemergence; assay type: in vivo, Echinochloa crus-galli
# Method in brief: as §3
# wheat [15] = test: Test A preemergence; assay type: in vivo, Triticum aestivum
# Method in brief: as §3
# morningglory [16] = test: Test A postemergence; assay type: in vivo, Ipomoea spp.; conditions: 0 to 100 scale where 0 is no effect and 100 is complete control
# Method in brief: as §3
# rice = test: Test B flooded paddy test; assay type: in vivo, Oryza sativa; conditions: Flood, 250 g ai/ha; 0 to 100 scale where 0 is no effect and 100 is complete control
# Method in brief: (§4)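 Flooded to 3 cm at the 2-leaf stage, pots received compound through the paddy water and were kept at that depth under greenhouse conditions. After 13–15 days, effect was rated by eye relative to controls, 0 = none and 100 = complete control.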
# morningglory [17] = test: Test A preemergence; assay type: in vivo, Ipomoea spp.
# Method in brief: as §3
# large (Lg) crabgrass [18] = test: Test A postemergence; assay type: in vivo, Digitaria sanguinalis
# Method in brief: as §3
# velvetleaf [19] = test: Test A postemergence; assay type: in vivo, Abutilon theophrasti; conditions: 0 to 100 scale where 0 is no effect and 100 is complete control
# Method in brief: as §3
# corn [20] = test: Test A preemergence; assay type: in vivo, Zea mays
# Method in brief: as §3
# velvetleaf [21] = test: Test A preemergence; assay type: in vivo, Abutilon theophrasti
# Method in brief: as §3
# sedge, umbrella = test: Test B flooded paddy test; assay type: in vivo, Cyperus difformis; conditions: Flood, 250 g ai/ha; 0 to 100 scale where 0 is no effect and 100 is complete control
# Method in brief: as §4
# Heteranthera limosa = test: Test B flooded paddy test; assay type: in vivo; conditions: Flood, 250 g ai/ha; 0 to 100 scale where 0 is no effect and 100 is complete control
# Method in brief: as §4
# large (Lg) crabgrass [22] = test: Test A preemergence; assay type: in vivo, Digitaria sanguinalis
# Method in brief: as §3
# barnyardgrass [23] = test: Test B flooded paddy test; assay type: in vivo, Echinochloa crus-galli; conditions: Flood, 250 g ai/ha; 0 to 100 scale where 0 is no effect and 100 is complete control
# Method in brief: as §4
# [24] = 1000 g ai/ha, 0 to 100 scale, 0 no effect, 100 complete control
# [25] = 125 g ai/ha, 0 to 100 scale where 0 is no effect and 100 is complete control
# [26] = 500 g ai/ha, 0 to 100 scale where 0 is no effect and 100 is complete control
# [27] = 500 g ai/ha, 0 to 100 scale, 0 no effect, 100 complete control, approx. 10 days
# [28] = 500 g ai/ha, 0 to 100 scale, 0 no effect, 100 complete control
structure (smiles),measurement,setting,value
CCN(CC)C(=O)c1cccc(Oc2ncc(Cl)cn2)c1-n1cc(C(F)(F)F)cn1 [Compound 263],"Plant response rating, Kochia",kochia [1],10
same,"Plant response rating, Pigweed",pigweed [2]; [24],10
same,Barnyardgrass plant response rating,barnyardgrass [3]; 1000 g ai/ha,0
same,"Plant response rating, Foxtail, Giant",giant foxtail [4]; [24],0
same,Ragweed plant response rating,ragweed [5],0
same,Kochia plant response rating,kochia [6],20
same,"Foxtail, Giant plant response rating",giant foxtail [7]; 1000 g ai/ha,50
same,"Plant response rating, Ryegrass, Italian",Italian ryegrass [8],0
same,"Plant response rating, Galium",galium,10
same,"Plant response rating, Wheat",wheat [9]; [24],0
same,"Plant response rating, Corn",corn [10]; [24],0
same,"Ryegrass, Italian plant response rating",Italian ryegrass [11],0
same,"Plant response rating, Blackgrass",blackgrass,20
same,"Plant response rating, Ragweed",ragweed [12],0
same,Pigweed plant response rating,pigweed [13]; 1000 g ai/ha,10
same,"Plant response rating, Barnyardgrass",barnyardgrass [14]; [24],0
Fc1cccc(Oc2ncc(Cl)cn2)c1-n1cc(-c2cccc(C(F)(F)F)c2)nn1 [Compound 276],"Plant response rating, Kochia",kochia [1],40
same,"Plant response rating, Pigweed",pigweed [2]; [24],80
same,Barnyardgrass plant response rating,barnyardgrass [3]; 1000 g ai/ha,0
same,"Plant response rating, Foxtail, Giant",giant foxtail [4]; [24],20
same,Ragweed plant response rating,ragweed [5],0
same,Kochia plant response rating,kochia [6],0
same,"Foxtail, Giant plant response rating",giant foxtail [7]; 1000 g ai/ha,0
same,"Plant response rating, Ryegrass, Italian",Italian ryegrass [8],0
same,"Plant response rating, Galium",galium,20
same,"Plant response rating, Wheat",wheat [9]; [24],0
same,"Plant response rating, Corn",corn [10]; [24],10
same,"Ryegrass, Italian plant response rating",Italian ryegrass [11],0
same,"Plant response rating, Blackgrass",blackgrass,20
same,"Plant response rating, Ragweed",ragweed [12],30
same,Pigweed plant response rating,pigweed [13]; 1000 g ai/ha,0
same,"Plant response rating, Barnyardgrass",barnyardgrass [14]; [24],20
CCNC(=O)c1cccc(Oc2ncc(Cl)cn2)c1-n1cc(C(F)(F)F)cn1 [Compound 257],"Plant response rating, Kochia",kochia [1],60
same,"Plant response rating, Pigweed",pigweed [2]; [24],40
same,Barnyardgrass plant response rating,barnyardgrass [3]; 1000 g ai/ha,50
same,"Plant response rating, Foxtail, Giant",giant foxtail [4]; [24],10
same,Ragweed plant response rating,ragweed [5],70
same,Kochia plant response rating,kochia [6],70
same,"Foxtail, Giant plant response rating",giant foxtail [7]; 1000 g ai/ha,70
same,"Plant response rating, Ryegrass, Italian",Italian ryegrass [8],0
same,"Plant response rating, Galium",galium,30
same,"Plant response rating, Wheat",wheat [9]; [24],0
same,"Plant response rating, Corn",corn [10]; [24],0
same,"Ryegrass, Italian plant response rating",Italian ryegrass [11],20
same,"Plant response rating, Blackgrass",blackgrass,10
same,"Plant response rating, Ragweed",ragweed [12],30
same,Pigweed plant response rating,pigweed [13]; 1000 g ai/ha,80
same,"Plant response rating, Barnyardgrass",barnyardgrass [14]; [24],10
FC(F)(F)c1cccc(Oc2ncc(Br)cn2)c1-n1cc(Br)cn1 [Compound 77],"Plant response rating, Pigweed",pigweed [2]; [25],100
same,"Plant response rating, Pigweed",pigweed [2]; [26],100
same,"Plant response rating, Barnyardgrass",barnyardgrass [3]; [25],50
same,Barnyardgrass plant response rating,barnyardgrass [3]; 500 g ai/ha,90
same,"Plant response rating, Wheat",wheat [15]; [25],0
same,Wheat plant response rating,wheat [15]; [27],0
same,"Plant response rating, Foxtail, Giant",giant foxtail [4]; [25],50
same,"Plant response rating, Foxtail, Giant",giant foxtail [4]; [26],90
same,"Plant response rating, Morningglory",morningglory [16]; 125 g ai/ha,70
same,"Plant response rating, Morningglory",morningglory [16]; 500 g ai/ha,100
same,"Plant response rating, Rice",rice,20
same,"Plant response rating, Morningglory",morningglory [17]; [25],10
same,Morningglory plant response rating,morningglory [17]; [27],60
same,"Plant response rating, Crabgrass, Large",large (Lg) crabgrass [18]; [25],50
same,"Plant response rating, Crabgrass, Large",large (Lg) crabgrass [18]; [28],90
same,"Plant response rating, Velvetleaf",velvetleaf [19]; 125 g ai/ha,80
same,"Plant response rating, Velvetleaf",velvetleaf [19]; 500 g ai/ha,100
same,"Plant response rating, Foxtail, Giant",giant foxtail [7]; [25],90
same,"Foxtail, Giant plant response rating",giant foxtail [7]; 500 g ai/ha,100
same,"Plant response rating, Corn",corn [20]; [25],0
same,Corn plant response rating,corn [20]; [27],0
same,"Plant response rating, Wheat",wheat [9]; [25],0
same,"Plant response rating, Wheat",wheat [9]; [26],30
same,"Plant response rating, Corn",corn [10]; [25],20
same,"Plant response rating, Corn",corn [10]; [28],40
same,"Plant response rating, Velvetleaf",velvetleaf [21]; [25],60
same,Velvetleaf plant response rating,velvetleaf [21]; [27],100
same,"Plant response rating, Sedge, Umbrella","sedge, umbrella",70
same,"Plant response rating, Pigweed",pigweed [13]; [25],100
same,Pigweed plant response rating,pigweed [13]; 500 g ai/ha,100
same,"Plant response rating, Ducksalad",Heteranthera limosa,40
same,"Plant response rating, Crabgrass, Large",large (Lg) crabgrass [22]; [25],90
same,"Crabgrass, Large plant response rating",large (Lg) crabgrass [22]; [27],100
same,"Plant response rating, Barnyardgrass",barnyardgrass [14]; [25],40
same,"Plant response rating, Barnyardgrass",barnyardgrass [14]; [28],70
same,"Plant response rating, Barnyardgrass",barnyardgrass [23],0
